Where a name gives a salt, the structure may show the parent alone.
Test system: Drosophila mutant KCNT1 lines (G288S, R398Q, R928C)
Test: Bang-sensitive behavioral seizure assay, statements for all three Drosophila mutant KCNT1 lines
Format: in vivo, Drosophila melanogaster
Details: for effect on seizure activity (in words): drug in food, 1 nM to 1 μM, each of the three mutant lines
From the text: The Drosophila melanogaster lines carrying the WT human KCNT1 transgene (NM_020822_3) or KCNT1 mutant G288S, R398Q or R928C transgene placed downstream of the yeast UAS promoter, have been described previously.[11] WT or mutant human UAS‐KCNT1 flies were crossed to flies expressing the GAL4 transcriptional activator under the control of the GAD1 promoter (GABAergic driver, Bloomington stock number 51630 P2) to drive expression of KCNT1 in GABAergic neurons, involved in neuronal inhibition.[11]
The bang‐sensitive behavioral assay (also known as the banging assay) was used to test for the presence of a seizure phenotype in Drosophila.[11], [30] Experiments were performed and scored, as previously described,[11] with a minimum of 50 Drosophila tested for each genotype and drug concentration.
Four drugs were selected for in vivo analysis to determine their effects on the seizure phenotypes in transgenic Drosophila lines with human mutant KCNT1 channels. Bepridil, a nonselective KCNT1 inhibitor was included for comparison. Drosophila food with and without drugs was prepared as previously described.[11] All chemicals were obtained from Sigma‐Aldrich (Gillingham, UK) apart from antrafenine hydrochloride (Toronto Research Chemicals, Canada) and regorafenib (USP, Germany).
Drosophila crosses were set up, and the resulting embryos were collected, as previously described.[11] A range of concentrations of each drug dissolved in Drosophila food, between 0.001 μM and 1 μM, were used in the experiments. Multiple replicates were performed for each dosage of the drugs and controls. Controls were vehicle controlled (VC), which was the normal food with just the solvent ethanol present (1 μl/1 ml) in the Drosophila food, and normal food (NF) control where no drug or solvent (ethanol) was added in the Drosophila food.
In all experiments, experimenters were not blinded to variants or treatments, nor were samples randomly assigned to groups. Sample sizes were not calculated in advance and no data were excluded from the analysis. Data were analyzed using GraphPad Prism 9 software (San Diego, CA, USA). All values are reported as mean ± standard error of the mean (SEM). All data passed normality and lognormality Shapiro–Wilk tests, determined by GraphPad Prism 9. In the experiments analyzing the effects of drugs in Drosophila, statistical significance of differences between groups was determined using Brown‐Forsythe and Welch's analysis of variance (ANOVA) tests (Supplementary Table S3), assuming non‐equal SDs, followed by Dunnett's multiple comparisons tests (GraphPad Prism 9). The results of the Dunnett's multiple comparisons tests are shown in Supplementary Table S4, where “N” represents independent trials using independent fly crosses, with the total number of flies for each condition shown in brackets.

Structure (SMILES) | viability of adult flies (1 μM in food) | effect on seizure activity (in words)
CC(C)c1c(C(=O)Nc2ccccc2)c(-c2ccccc2)c(-c2ccc(F)cc2)n1CC[C@@H](O)C[C@@H](O)CC(=O)O [atorvastatin] | reduced viability | did not show a significant effect
O=C(OCCN1CCN(c2cccc(C(F)(F)F)c2)CC1)c1ccccc1Nc1ccnc2cc(C(F)(F)F)ccc12 [antrafenine] | – | significantly reduce the seizure activity
CNC(=O)c1cc(Oc2ccc(NC(=O)Nc3ccc(Cl)c(C(F)(F)F)c3)c(F)c2)ccn1 [regorafenib] | – | did not show a significant effect
Cc1c(O)cccc1C(=O)N[C@@H](CSc1ccccc1)[C@H](O)CN1C[C@H]2CCCC[C@H]2C[C@H]1C(=O)NC(C)(C)C [nelfinavir mesylate] | – | significantly reduce the seizure activity
